Data: PubChem BioAssay AID1845199 (Molecular Pharmacology Branch, DTP, NCI, 2023)

Tested on: 556581-035-R-J1 tumor spheroid viability, % test/control
Assay: Anticancer human tumor 556581-035-R-J1 patient-derived ovarian carcinoma cell line growth inhibition
Settings: spheroids with HUVEC and MSC; for IC50: curve of first compound; for viability, T/C: stronger effect = lower value
How it was run: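 Complex tumor spheroids combined malignant cells with endothelial cells and mesenchymal stem cells. DNA-damaging drugs and DNA repair inhibitors were tested alone and in combination, at half-log dilutions down from clinical Cmax (top 10 microM if Cmax unknown), 0.25% DMSO final.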

[1] = second compound 30 pM, first compound 0.00949 µM
[2] = second compound 30 pM, first compound 0.03 µM
[3] = second compound 30 pM, first compound 0.0949 µM
[4] = second compound 30 pM, first compound 0.3 µM
[5] = second compound 30 pM, first compound 0.949 µM
[6] = second compound 30 pM, first compound 3 µM
[7] = second compound 94.9 pM, first compound 0.00949 µM
[8] = second compound 94.9 pM, first compound 0.03 µM
[9] = second compound 94.9 pM, first compound 0.0949 µM
[10] = second compound 94.9 pM, first compound 0.3 µM
[11] = second compound 94.9 pM, first compound 0.949 µM
[12] = second compound 94.9 pM, first compound 3 µM
[13] = second compound 0.0003 µM, first compound 0.00949 µM
[14] = second compound 0.0003 µM, first compound 0.03 µM
[15] = second compound 0.0003 µM, first compound 0.0949 µM
[16] = second compound 0.0003 µM, first compound 0.3 µM
[17] = second compound 0.0003 µM, first compound 0.949 µM
[18] = second compound 0.0003 µM, first compound 3 µM
[19] = second compound 0.000949 µM, first compound 0.00949 µM
[20] = second compound 0.000949 µM, first compound 0.03 µM
[21] = second compound 0.000949 µM, first compound 0.0949 µM
[22] = second compound 0.000949 µM, first compound 0.3 µM
[23] = second compound 0.000949 µM, first compound 0.949 µM
[24] = second compound 0.000949 µM, first compound 3 µM
[25] = second compound 0.003 µM, first compound 0.00949 µM
[26] = second compound 0.003 µM, first compound 0.03 µM
[27] = second compound 0.003 µM, first compound 0.0949 µM
[28] = second compound 0.003 µM, first compound 0.3 µM
[29] = second compound 0.003 µM, first compound 0.949 µM
[30] = second compound 0.003 µM, first compound 3 µM
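Note: spheroids exposed to compounds for 7 days before viability read.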

Row | Structure (SMILES) | IC50 (second compound 30 pM) | IC50 (second compound 94.9 pM) | IC50 (second compound 0.0003 µM) | IC50 (second compound 0.000949 µM) | IC50 (second compound 0.003 µM) | viability, T/C [1] | viability, T/C [2] | viability, T/C [3] | viability, T/C [4] | viability, T/C [5] | viability, T/C [6] | viability, T/C [7] | viability, T/C [8] | viability, T/C [9] | viability, T/C [10] | viability, T/C [11] | viability, T/C [12] | viability, T/C [13] | viability, T/C [14] | viability, T/C [15] | further results
1 | CNCc1ccc(-c2cc(-c3nc(-c4ccc(S(=O)(=O)C(C)C)cc4)cnc3N)on2)cc1 + COc1cc2c(cc1O)CCNC21CSC2c3c(OC(C)=O)c(C)c4c(c3C(COC1=O)N1C(O)C3Cc5cc(C)c(OC)c(O)c5C(C21)N3C)OCO4 | 1610 nM | 1240 nM | 725 nM | < 9.49 nM | < 9.49 nM | 99.4% | 108% | 108% | 108% | 69.4% | 27.1% | 105% | 102% | 105% | 96.1% | 61% | 13.6% | 94.4% | 97.1% | 107% | viability, T/C [16]: 94.3%; viability, T/C [17]: 36.5%; viability, T/C [18]: 11%; viability, T/C [19]: 28.1%; viability, T/C [20]: 38.3%; viability, T/C [21]: 25.6%; viability, T/C [22]: 9.62%; viability, T/C [23]: 2.92%; viability, T/C [24]: 0.33%; viability, T/C [25]: 0.74%; viability, T/C [26]: 0.64%; viability, T/C [27]: 0.49%; viability, T/C [28]: 0.47%; viability, T/C [29]: 0.42%; viability, T/C [30]: 0.33%
2 | Cc1sc2c(c1C)C(c1ccc(Cl)cc1)=NC(CC(=O)Nc1ccc(O)cc1)c1nnc(C)n1-2 (stereo not given) + COc1cc2c(cc1O)CCNC21CSC2c3c(OC(C)=O)c(C)c4c(c3C(COC1=O)N1C(O)C3Cc5cc(C)c(OC)c(O)c5C(C21)N3C)OCO4 | > 3000 nM | > 3000 nM | 782 nM | < 9.49 nM | < 9.49 nM | 107% | 101% | 83.8% | 80.1% | 72.1% | 63.5% | 112% | 102% | 87.4% | 75.8% | 71% | 54.9% | 90.1% | 88.2% | 80.3% | viability, T/C [16]: 64.4%; viability, T/C [17]: 47.4%; viability, T/C [18]: 35.4%; viability, T/C [19]: 21.7%; viability, T/C [20]: 18.8%; viability, T/C [21]: 15.9%; viability, T/C [22]: 5.84%; viability, T/C [23]: 1.81%; viability, T/C [24]: 0.31%; viability, T/C [25]: 0.52%; viability, T/C [26]: 0.55%; viability, T/C [27]: 0.44%; viability, T/C [28]: 0.36%; viability, T/C [29]: 0.97%; viability, T/C [30]: 1.24%
3 | Cn1ncnc1[C@H]1c2n[nH]c(=O)c3cc(F)cc(c23)N[C@@H]1c1ccc(F)cc1 + COc1cc2c(cc1O)CCNC21CSC2c3c(OC(C)=O)c(C)c4c(c3C(COC1=O)N1C(O)C3Cc5cc(C)c(OC)c(O)c5C(C21)N3C)OCO4 | > 3000 nM | > 3000 nM | 2230 nM | < 9.49 nM | < 9.49 nM | 100% | 96.7% | 93.5% | 86.7% | 74.5% | 58.7% | 99.7% | 97.7% | 89.5% | 84.9% | 69.7% | 51.7% | 85.6% | 91.8% | 84.1% | viability, T/C [16]: 79.1%; viability, T/C [17]: 68.7%; viability, T/C [18]: 43.4%; viability, T/C [19]: 39.6%; viability, T/C [20]: 33.9%; viability, T/C [21]: 31.8%; viability, T/C [22]: 28.1%; viability, T/C [23]: 7.63%; viability, T/C [24]: 1.54%; viability, T/C [25]: 0.96%; viability, T/C [26]: 0.99%; viability, T/C [27]: 0.97%; viability, T/C [28]: 1.34%; viability, T/C [29]: 1.27%; viability, T/C [30]: 1.68%
